A word on the IC50: it is the concentration at which inhibition is half-maximal.

Activity calls are given as the source filed them. No rule for the calls is given here.

This passage reports IC50 results from ChEMBL document CHEMBL1201862, “PubChem BioAssay data set” (2004).

This test addresses T1, Exodeoxyribonuclease V (Escherichia coli (strain K12), UniProt P04993+P07648+P08394).
T1 sequence (P04993 whole entry): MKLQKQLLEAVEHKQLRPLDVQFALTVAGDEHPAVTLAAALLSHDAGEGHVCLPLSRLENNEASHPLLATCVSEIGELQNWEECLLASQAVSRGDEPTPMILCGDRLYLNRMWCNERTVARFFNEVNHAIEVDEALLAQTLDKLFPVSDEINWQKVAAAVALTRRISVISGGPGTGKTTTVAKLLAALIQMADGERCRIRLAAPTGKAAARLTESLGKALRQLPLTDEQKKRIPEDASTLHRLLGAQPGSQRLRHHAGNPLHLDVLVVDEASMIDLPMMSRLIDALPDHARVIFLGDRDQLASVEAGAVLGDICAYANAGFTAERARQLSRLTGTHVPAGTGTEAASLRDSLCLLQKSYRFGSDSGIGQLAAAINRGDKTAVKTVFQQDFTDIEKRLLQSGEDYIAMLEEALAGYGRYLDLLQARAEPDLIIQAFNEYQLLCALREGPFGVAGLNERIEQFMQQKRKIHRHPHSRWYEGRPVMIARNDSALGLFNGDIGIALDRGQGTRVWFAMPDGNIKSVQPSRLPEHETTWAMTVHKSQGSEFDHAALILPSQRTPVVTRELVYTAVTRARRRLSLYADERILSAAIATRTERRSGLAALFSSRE
T1 sequence (P07648 whole entry): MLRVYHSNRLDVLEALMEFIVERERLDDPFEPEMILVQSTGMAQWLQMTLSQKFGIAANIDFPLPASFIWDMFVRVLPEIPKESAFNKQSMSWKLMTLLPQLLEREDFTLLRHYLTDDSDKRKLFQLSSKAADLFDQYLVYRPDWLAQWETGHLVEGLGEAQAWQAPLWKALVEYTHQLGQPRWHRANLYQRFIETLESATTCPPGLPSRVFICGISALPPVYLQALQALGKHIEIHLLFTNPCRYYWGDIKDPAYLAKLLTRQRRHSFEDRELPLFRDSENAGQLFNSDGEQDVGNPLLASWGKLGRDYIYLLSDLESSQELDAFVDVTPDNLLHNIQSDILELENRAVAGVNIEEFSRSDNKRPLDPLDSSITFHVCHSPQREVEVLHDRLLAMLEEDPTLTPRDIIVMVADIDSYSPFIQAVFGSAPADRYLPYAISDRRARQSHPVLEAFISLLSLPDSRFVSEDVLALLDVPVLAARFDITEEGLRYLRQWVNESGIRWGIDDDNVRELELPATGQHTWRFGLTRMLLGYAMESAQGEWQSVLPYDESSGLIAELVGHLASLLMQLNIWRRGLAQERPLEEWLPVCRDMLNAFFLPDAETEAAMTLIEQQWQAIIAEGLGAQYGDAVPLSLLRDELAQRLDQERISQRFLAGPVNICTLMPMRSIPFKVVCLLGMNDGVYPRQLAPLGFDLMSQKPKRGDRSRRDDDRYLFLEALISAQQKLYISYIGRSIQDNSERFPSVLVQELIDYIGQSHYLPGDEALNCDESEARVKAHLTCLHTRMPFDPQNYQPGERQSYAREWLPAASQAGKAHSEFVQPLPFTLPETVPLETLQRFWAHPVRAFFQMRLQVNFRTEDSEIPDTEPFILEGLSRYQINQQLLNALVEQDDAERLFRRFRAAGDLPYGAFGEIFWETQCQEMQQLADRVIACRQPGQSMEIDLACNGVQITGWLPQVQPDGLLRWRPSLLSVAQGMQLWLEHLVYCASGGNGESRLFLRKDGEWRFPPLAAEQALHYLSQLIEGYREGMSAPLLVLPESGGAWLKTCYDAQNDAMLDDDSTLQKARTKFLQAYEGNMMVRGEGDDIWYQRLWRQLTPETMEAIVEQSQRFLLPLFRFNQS
T1 sequence (P08394 whole entry): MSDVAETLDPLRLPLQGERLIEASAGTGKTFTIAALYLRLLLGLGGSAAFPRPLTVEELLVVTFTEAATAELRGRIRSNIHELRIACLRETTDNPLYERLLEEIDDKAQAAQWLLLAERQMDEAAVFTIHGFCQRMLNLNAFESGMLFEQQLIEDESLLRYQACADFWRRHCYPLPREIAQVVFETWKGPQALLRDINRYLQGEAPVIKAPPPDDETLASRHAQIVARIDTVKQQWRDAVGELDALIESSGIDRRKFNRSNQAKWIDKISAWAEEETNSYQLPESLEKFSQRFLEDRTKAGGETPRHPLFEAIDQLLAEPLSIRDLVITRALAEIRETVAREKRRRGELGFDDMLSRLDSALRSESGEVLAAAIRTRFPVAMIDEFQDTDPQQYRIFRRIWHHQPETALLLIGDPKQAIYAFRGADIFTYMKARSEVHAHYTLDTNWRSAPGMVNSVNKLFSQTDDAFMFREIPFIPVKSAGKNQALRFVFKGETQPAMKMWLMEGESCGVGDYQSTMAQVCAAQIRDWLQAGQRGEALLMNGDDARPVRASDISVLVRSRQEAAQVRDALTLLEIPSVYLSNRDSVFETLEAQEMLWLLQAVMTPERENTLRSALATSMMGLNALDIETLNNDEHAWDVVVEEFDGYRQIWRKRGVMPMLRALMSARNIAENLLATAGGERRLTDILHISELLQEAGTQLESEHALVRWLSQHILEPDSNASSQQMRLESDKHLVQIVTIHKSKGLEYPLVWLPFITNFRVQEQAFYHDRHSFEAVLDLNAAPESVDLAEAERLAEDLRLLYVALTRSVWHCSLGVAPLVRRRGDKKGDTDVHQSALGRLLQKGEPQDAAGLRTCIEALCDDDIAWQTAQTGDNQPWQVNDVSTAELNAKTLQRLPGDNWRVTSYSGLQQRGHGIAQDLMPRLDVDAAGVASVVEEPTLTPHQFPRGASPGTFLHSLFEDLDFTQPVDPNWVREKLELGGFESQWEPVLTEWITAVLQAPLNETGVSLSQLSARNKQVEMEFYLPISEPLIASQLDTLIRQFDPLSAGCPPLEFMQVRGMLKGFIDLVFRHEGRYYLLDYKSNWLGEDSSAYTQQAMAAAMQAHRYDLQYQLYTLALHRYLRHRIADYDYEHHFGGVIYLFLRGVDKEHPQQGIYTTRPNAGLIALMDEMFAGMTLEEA
The experiment in a line: RecBCD inhibition via phage-restricted bacterial growth – absorbance, V66 E. coli, mutant T4 phage, counter-screen for AddAB inhibitor project, dose response (AID 492957). In kind it is functional, cell-based, Escherichia coli str. K-12 substr. MG1655. On the technique in general: The purpose of a counterscreen is to sort out artefacts and off-target activity.

Turning to `O=[N+]([O-])c1ccc(/C=N/n2cnc3ccccc32)s1`, the IC50 was > 119 µM (inactive). Then `CCSc1nsc(NC(=O)Nc2cccc(F)c2)n1`, with > 119 µM (inactive).
